Results taken from paper PMC11396514, “Synthesis and Biological Evaluation of Novel Piperidine-3-Carboxamide Derivatives as Anti-Osteoporosis Agents Targeting Cathepsin K” (Molecules, 2024).
Entries after “also recorded” stand apart in the source; their conditions may differ.

Legend:
[1] = Acute toxicity testing, oral; format: in vivo, mice; settings: mouse, in vivo, 300 mg/kg/day for 7 days, mice
Method: (§1) Initially, acute toxicity testing was carried out to establish appropriate dosages. Compound H-9 was administered orally at a dose of 300 mg/kg/day for 7 days.

mice = test: Acute toxicity testing, oral; format: in vivo; settings: 300 mg/kg/day for 7 days
Method: as §1

[2] = test system: OVX-induced-osteoporosis mice; test: OVX-induced osteoporosis mouse model, BMD of the thighbone; format: in vivo; settings: 16 weeks; for BMD compared to the untreated model group: H-9 90, 30 and 10 mg/kg, raloxifene 5 mg/kg, intragastric
Method: To evaluate the anti-osteoporosis therapeutic potential of compound H-9, an ovariectomized (OVX)-induced osteoporosis mouse model was established and employed. The study included six experimental groups: a blank control group, an untreated model group, three H-9 treatment groups (doses of 90 mg/kg, 30 mg/kg, and 10 mg/kg), and a positive control group treated with raloxifene (5 mg/kg), with 10 mice in each group.
The mice were randomly divided into 2 groups: a blank control group (n = 10) and a model group (n = 50). After a 7-day acclimation period, the model group mice received a bilateral ovariectomy. Subsequently, the model group was further divided into 5 subgroups (n = 10): an untreated model group, three test groups, and a raloxifene group. Ten days after surgery, the three test groups were administered compound H-9 via intragastric administration at doses of 90 mg/kg, 30 mg/kg, and 10 mg/kg, respectively. Raloxifene was given to the positive control group at a dose of 5 mg/kg. All drugs were administered for 16 weeks, with a 1-day break following every 6 consecutive days of administration. The blank control and untreated model groups received an equivalent volume of saline. At the end of the administration period, the mice were anesthetized with sodium pentobarbital, and the BMD of the thighbone was measured using an OSTEOCORE 3 Bone Density Meter (Thule, Marseille, France).

[3] = test system: RANKL-induced RAW264.7 cells; test: In vitro anti-bone resorption assay: area of bone resorption pits on bone slices (toluidine blue); format: cell-based; settings: compound 1 µM, 5 days, compared with MIV-711 / model group
Excerpt: (§2) Type I collagen, the predominant structural protein in bone, constitutes approximately 90% of the bone matrix protein [22]. During bone renewal, type I collagen is degraded, releasing short peptide fragments such as the C-terminal peptide of type I collagen (CTX-I) into the bloodstream. The concentration of CTX-I in the patient’s blood serves as a crucial biomarker for evaluating the degree of osteoporosis. In vitro, bone resorption can be assessed by measuring the concentration of CTX-I using a model in which osteoclasts are cultured on bone slices. In this experiment, the in vitro anti-bone resorption activities of the test compounds were evaluated in RANKL-induced RAW264.7 cells. This evaluation was based on the concentration of CTX-I released into the cell culture medium due to bone degradation, as well as the area of bone resorption pits formed on bone slices.
(§3) RAW264.7 cells, obtained from the cell bank of the Chinese Academy of Medical Sciences, were seeded into 96-well plates at a density of 1 × 10^5 cells per well with bovine femur slices. To induce cell differentiation, 50 ng mL^−1 of RANKL was added to the RAW264.7 cells. The cells were cultured for 5 days at 37 °C under 5% CO2 with the test compounds at a concentration of 1 µM. The culture supernatant was collected to measure the CTX-I concentration using ELISA. The bone slices were fixed with 2.5% glutaraldehyde for 7 min, then washed 3 times with 0.25 mol/L ammonium hydroxide, dehydrated using a series of ethanol solutions (40%, 75%, 80%, 95%, and anhydrous ethanol), and dried naturally. After staining with 1% toluidine blue solution at room temperature for 3–4 min, the bone slices were rinsed with distilled water and analyzed using an optical microscope. Bone resorption areas were calculated using image analysis software (iBright CL1500, Redmond, WA, USA).

[4] = test system: Cat K levels in RAW264.7 cells; test: Western blotting assay of Cat K expression; format: cell-based; settings: H-9 at 0, 1 and 5 µM for five days, RANKL-treated RAW264.7 cells
Method: To further verify the anti-bone resorption mechanism of the target compounds, a western blotting assay was carried out to assess the effect of compound H-9 on the expression of Cat K. […] RAW264.7 cells were treated with compound H-9 at concentrations of 0, 1, and 5 µM for five days, followed by cell lysis. Proteins were extracted and analyzed for Cat K levels. […] These western blotting results, combined with enzyme inhibitory activities and molecular docking analyses, confirm that the anti-bone resorption activity of compound H-9 is mediated through the inhibition of Cat K activity.
RAW264.7 cells were seeded into 12-well plates at a density of 1 × 10^5 cells per well, and 50 ng mL^−1 of RANKL was added to induce cell differentiation. The cells were cultured at 37 °C under 5% CO2 and treated with compound H-9 (0, 1, and 5 µM) for 5 days. The cells were then harvested, lysed, and centrifuged at 12,000× g for 10 min. The supernatants were collected and mixed with loading buffer, then heated to 100 °C. Total protein concentrations were determined using a Bio-Rad protein assay ([…], Hercules, CA, USA). The samples were subjected to SDS-PAGE and transferred to a PVDF membrane. The membrane was blocked with 5% non-fat milk, and then, incubated overnight at 4 °C with primary antibody against Cat K and GAPDH. […]

Recombinant human Cat K = target: T1, Recombinant human Cat K (Homo sapiens, UniProt P43235); test: In vitro enzymatic assay of Cat K inhibition (Z-Phe-Arg-AMC fluorescence); format: biochemical; settings: pH 6.0, substrate Z-Phe-Arg-AMC, read-out: Cat K IC50 (µM) ± SD
T1 sequence (P43235 115-329): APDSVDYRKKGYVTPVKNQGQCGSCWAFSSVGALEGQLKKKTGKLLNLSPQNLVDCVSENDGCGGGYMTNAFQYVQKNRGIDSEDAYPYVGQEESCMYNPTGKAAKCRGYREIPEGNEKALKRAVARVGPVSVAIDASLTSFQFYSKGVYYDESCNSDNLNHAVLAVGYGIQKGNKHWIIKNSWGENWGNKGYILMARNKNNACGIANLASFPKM
Method: Compounds were tested at eight concentrations (100–0.001 µM). Recombinant human Cat K (5.5 ng/mL) in reaction buffer (50 µL) containing sodium acetate (50 mM), EDTA (2.5 mM), and DTT (1 mM) was added to a 96-well plate containing the test compounds at pH 6.0. The plate was incubated at 37 °C for 15 min, and the fluorescence (F1) was measured at 355 nm excitation and 460 nm emission using a microplate reader (Wallac 1420 Victor2, Norwalk, CA, USA). Subsequently, Z-Phe-Arg-AMC (20 µL, 10 µM) was added, and the plate was incubated at 37 °C for 1 h. Fluorescence (F2) was measured again at 355 nm excitation and 460 nm emission. The inhibition rate was calculated using the formula: inhibition (%) = [control (F2 − F1) − sample (F2–F1)]/[control (F2 − F1) − blank (F2 − F1)] × 100%. IC50 values were calculated using the SPSS 17.0 software.

[5] = test system: RANKL-induced RAW264.7 cells; test: In vitro anti-bone resorption assay: CTX-I released into culture medium (ELISA), cells on bovine femur slices; format: cell-based
Excerpt: as §2, §3

Row | Compound | LD50 at 7 days [1] | Mouse deaths (mice) | BMD compared to the untreated model group [2] | Efficacy on BMD compared to the positive control ([2]; H-9 at 90 mg/kg vs raloxifene 5 mg/kg) | Anti-bone resorption activity by area of bone resorption pits (in words) [3] | Effect on Cat K levels (western blot) [4] | IC50 (Recombinant human Cat K) | CTX-I concentration in the cell culture medium ([5]; compound 1 µM, 5 days, ELISA) | CTX-I concentration compared to the model group (in words) ([5]; compound 1 µM, 5 days, vs untreated model group) | Anti-bone resorption effects in vitro compared to MIV-711 (summary statement) ([5]; in vitro, RAW264.7 cells)
1 | COc1ccc(S(=O)(=O)N2CCC[C@@H](C(=O)NCc3ccc(Cl)cc3)C2)cc1 [Compound H-9, (R)-N-(4-chlorobenzyl)-1-((4-methoxyphenyl)sulfonyl)piperidine-3-carboxamide] | > 300 mg/kg | No mouse deaths | increased the bone mineral density; also recorded: significant increases in BMD | comparable to that of the positive control | comparable to that of MIV-711 | dose-dependent decrease in Cat K levels; also recorded: effectively downregulated cathepsin K expression; also recorded: decreased Cat K levels | 0.08 ± 0.03 µM | 20.46 ± 3.67 nM | reduced CTX-I concentration | comparable to those of MIV-711; also recorded: comparable to that of MIV-711
2 | O=C(c1ccc(OCCN2CCCCC2)cc1)c1c(-c2ccc(O)cc2)sc2cc(O)ccc12 [raloxifene, reference compound] |  |  | significant increases in BMD |  |  |  |  |  |  | 
